Molecular target: T1, b-Raf wild-type (Homo sapiens, UniProt P15056)
T1 construct: recombinant human b-Raf residues 416-end with N-terminal GST-tag; purchased Upstate 14-530M; host or cells: baculovirus, Sf21 insect cells
Experiment: b-Raf wild-type HTRF assay with 6H-MEK as substrate (dose response)
Type: biochemical
Details: kinase enzyme inhibition, 6H-MEK substrate, read-out: bRaf wild-type IC50
Description: Kinase Enzyme Inhibition Assay (IC50)
b-Raf Wild-Type HTRF Assay With 6H-MEK as Substrate (Dose Response)
The assay utilizes 6H-MEK as the substrate. Upon b-Raf WT phosphorylation, phosphorylated 6H-MEK is detected with rabbit anti-phospho-MEK1/2, Eu-labeled anti-rabbit, and APC-labeled anti-6H antibodies.
Reagents and Instruments:
• Enzyme: recombinant human b-Raf residues 416-end with N-terminal GST-tag from Upstate; (expressed by baculovirus in Sf21 insect cells), 0.26 mg/mL (3.87 μM assuming a molecular weight of 67.2 kD) Cat. #14-530M, Lot #25502AU, stored at −80° C. • Substrate: WT full-length 6H-MEK, 4.94 mg/mL (154.4 μM assuming a MW of 32 kD) stored at −15° C. • Antibodies: Rabbit (α-P-(Ser 217/221)-MEK-1/2 Ab (from Cell Signaling, Cat. #9121B, Lot 14); Eu-(α-rabbit IgG (from Wallac, Cat. #AD0083, Lot 318663, 710 ug/mL, 4.4 μM); (α-6H-SureLight-APC (from Martek, Cat. #AD0059H, Lot E012AB01, 3.03 μM). • Reader: Envision from PerkinElmer, HTRF reading mode with 412 mirror • Assay Plate: Matrix all-black polypropylene plates (Cat. #4344) • Others: Weidman 384 polypropylene plates (REMP) for compound plate. Assay Procedure: • (1) Prepare Kinase Assay Buffer (KAB): 50 mM HEPES (HyClone) pH7, 10 mM MgCl2, 1 mM DTT, 0.1 mM […], and 0.3 mg/ml BSA. • (2) Prepare 6H-MEK (150 nM) in KAB. Add 12 μL/well to the assay plate. • (3) Prepare ATP (66 μM) in KAB. • (4) Dilute compounds to 2.4 mM and any positive controls to 480 μM in DMSO. Perform 10-point 3× dilution in DMSO. Withdraw 2.5 μL/well of DMSO solution and add to 27.5 μL/well ATP solution in (3). • (5) Mix, then add 6 μL/well of solution in (4) to the assay plate for a DMSO concentration of 2.1% during MEK phosphorylation. • (6) Prepare b-Raf WT (100 μM) in KAB. • (7) Add 6 μL/well of KAB in columns 1-2 and 6 μL/well of b-Raf WT in columns 3-24. • (8) Incubate at 37° C. for 30 min. • (9) Prepare rabbit (α-P-(Ser 217/221 )-MEK-1/2 Ab (1:200 from stock) in AB1: 50 mM HEPES pH7, 0.2 mg/ml BSA, and 43 mM EDTA. • (10) To stop reaction, add 6 μL/well of solution from (9) to the assay plate and incubate at 37° C. for 30 min. • (11) Prepare Eu-(α-rabbit IgG (9 nM) and (α-6H-SureLight-APC (180 nM) in AB2: 50 mM HEPES pH7 and 0.2 mg/mL BSA. • (12) Add 6 μL/well of solution from (11) to the assay plate. • (13) For determining the spectrum cross talk factor, prepare 2 samples following steps (1) to (10). For the blank sample, add 6 μL/well of AB2. For the cross talk factor sample, add 6 μL/well of Eu-anti rabbit IgG (9 nM). • (14) Incubate at room temperature for 1.5 hours. • (15) Read HTRF signals at 615 nm and 665 nm on the Envision. Normalize HTRF signals after spectrum cross-talk correction. b-Raf V600E Mutant HTRF Assay With 6H-MEK as Substrate (Dose Response) Assay Principle: […]

T1 sequence (P15056 416-766 limits assumed): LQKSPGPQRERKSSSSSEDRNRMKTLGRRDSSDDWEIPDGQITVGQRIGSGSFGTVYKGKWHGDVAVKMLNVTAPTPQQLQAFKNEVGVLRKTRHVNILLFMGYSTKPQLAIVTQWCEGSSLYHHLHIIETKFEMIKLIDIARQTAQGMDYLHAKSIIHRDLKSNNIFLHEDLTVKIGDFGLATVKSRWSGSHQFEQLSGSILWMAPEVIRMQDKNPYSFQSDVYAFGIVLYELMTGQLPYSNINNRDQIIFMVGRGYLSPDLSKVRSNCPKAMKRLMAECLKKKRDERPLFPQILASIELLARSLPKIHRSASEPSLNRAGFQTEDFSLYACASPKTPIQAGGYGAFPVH

| IC50 | SMILES |
| --- | --- |
| > 10 µM | Cn1nc(COc2cccc(OCc3ccccc3)c2)c2c(N)ncnc21 [Example 7, 3-(3-Benzyloxy-phenoxymethyl)-1-methyl-1H-pyrazolo[3,4-d]pyrimidin-4-ylamine] |
| < 10 µM | Cc1ccc(NC(=O)c2ccc(NCCO)c(Cl)c2)cc1OCc1nn(C)c2ncnc(N)c12 [Example 9, N-[3-(4-Amino-1-methyl-1H-pyrazolo[3,4-d]pyrimidin-3-ylmethoxy)-4-methyl-phenyl]-3-chloro-4-(2-hydroxy-ethylamino)-benzamide] |
| < 10 µM | Cc1ccc(NC(=O)c2cccc(Cl)c2)cc1OCc1nn(C)c2ncnc(N)c12 [Example 11, N-[3-(4-Amino-1-methyl-1H-pyrazolo[3,4-d]pyrimidin-3-ylmethoxy)-4-methyl-phenyl]-3-chloro-benzamide] |
| > 10 µM | Cc1noc(-c2ccc(C)c(OCc3nn(C)c4ncnc(N)c34)c2)n1 [Example 13, 4-Amino-1-1-methyl-3-[2-methyl-5-(3-methyl-[1,2,4]oxadiazol-5-yl)-phenoxymethyl]-1H-pyrazolo[3,4-d]pyrimidine] |
| < 10 µM | Cc1ccc(OCc2ccccc2)cc1OCc1nn(C)c2ncnc(N)c12 [Example 15, 3-(5-Benzyloxy-2-methyl-phenoxymethyl)-1-methyl-1H-pyrazolo[3,4-d]pyrimidin-4-ylamine] |
| < 10 µM | Cc1ccc(C(=O)Nc2ccc(Cl)cc2)cc1OCc1nn(C)c2ncnc(N)c12 [Example 17, 3-(4-Amino-1-methyl-1H-pyrazolo[3,4-d]pyrimidin-3-ylmethoxy)-N-(4-chloro-phenyl)-4-methyl-benzamide] |
| < 10 µM | Cc1ccc(OCc2ccc(Cl)cc2)cc1OCc1nn(C)c2ncnc(N)c12 [Example 19, 3-[5-(4-Chloro-benzyloxy)-2-methyl-phenoxymethyl]-1-methyl-1H-pyrazolo[3,4-d]pyrimidin-4-ylamine] |
| > 10 µM | Cc1nnc(-c2ccc(C)c(OCc3nn(C)c4ncnc(N)c34)c2)o1 [Example 21, 1-Methyl-3-[2-methyl-5-(5-methyl-[1,3,4]oxadiazol-2-yl)-phenoxymethyl]-1H-pyrazolo[3,4-d]pyrimidin-4-ylamine] |

Source: patent publication US7968554B2, “Pyrazolo[3,4-d]pyrimidine derivatives” (Hoffman-La Roche Inc., priority 2007, dated 2011)
